Measurements as given in US8084196B2, “Method for the in vitro screening of anti-cancer compounds that inhibits SK3 activity, and said anti-cancer compounds” (priority 2006, dated 2011).
pIC50: −log10 of the molar value.

Legend:
SK3 protein [1] = assay: Western blot of SK3 protein after siRNA transfection, MDA-MB-435s; format: cell-based, human; details: 24, 48, 72 h after transfection vs scrambled-siRNA, greatest effect at 72 hours
Protocol: A—Top, Western blot patterns showing the silencing effect on the expression of SK3 protein—of two siRNAs designed against SK3 mRNA. Cells were transfected with siRNA-lipofectamine complexes for 24 h, 48 h and 72 h. A scrambled-siRNA was used as negative control. SiRNA oligonucleotide sequences are listed in the Materials and Methods section. Bottom, Histograms showing the inhibitory effect on […] cell migration after 24 h, 48 h and 72 h siRNA transfection with or without 10 nM apamin. Results from two separate experiments performed in triplicate are expressed as mean±S.E.M. Normalization of cell number performed as described in the legend of FIG. 1. Note that the cells have lost their sensitivity for apamin after siRNA transfection, indicating a specific effect on SK3 protein.
For Western blot experiments, proteins were electrotransferred onto polyvinylidene fluoride membranes which were incubated with antibodies directed against SK2 and SK3 proteins (1:1000) followed by incubation with a horseradish peroxidase-conjugated anti-rabbit IgG (1:5000; Tebu-Bio, France). Anti-SK2 directed against amino acids 542-559 and anti-SK3 directed against amino acids 2-21 (Sigma-Aldrich, France) were used for Western blot and immunocytochemical experiments. Anti-Actin directed against amino acids 20-33 (Sigma-Aldrich, France) was used for western blot loading control experiments. […]

MDA-MB-435s cells [2] = format: cell-based, human; details: FIG. 4A; for number of migrating cells after siRNA transfection: MDA-MB-435s, 24, 48, 72 h after transfection
Protocol: Cells were seeded at 40000 in a cell culture insert in DMEM with 5% FBS±drugs or [K^+] 60 mM. […] 60 mM. After 24 h, cells of the lower compartment were stained with hematoxylin (A, bottom) and counted. The normalized cell number corresponded to the ratio of total number of migrating cells in presence of drug or [K^+] 60 mM/total number of migrating cells in control experiments. […] Scale bar=10 μm for the two panels.
(§1) Cell proliferation was determined using the tetrazolium salt reduction method, as described (Roger S, Potier M, Vandier C, Le Guennec J Y, Besson P. Description and role in proliferation of iberiotoxin-sensitive currents in different human mammary epithelial normal and cancerous cells. Biochim Biophys Acta 2004; 1667:190-9.). Cells were seeded on 24-well plates and grown for 48 h. […] Cell migration was analyzed in 24-well plates receiving 8-μm pore size polyethylene terephtalate membrane cell culture inserts (Becton Dickinson, France), as described (Roger S, Potier M, Vandier C, Le Guennec J Y, Besson P. Description and role in proliferation of iberiotoxin-sensitive currents in different human mammary epithelial normal and cancerous cells. Biochim Biophys Acta 2004; 1667:190-9.).

518A2 cells = assay: Cell migration, 518A2 melanoma cells; format: cell-based; details: 518A2, 48 hours after transfection, FIG. 8B
Protocol: Histograms showing the effect of 10 nM apamin on cell migration (FIG. 5A). Cells were seeded at 40000 in a cell culture insert in DMEM with 5% FBS±apamin. The lower compartment of the insert contained DMEM with 10% FBS as a chemoattractant±apamin. After 24 h, cells of the lower side were stained with hematoxylin (FIG. 5B, right) and counted. The normalized cell number corresponded to the ratio of total number of migrating cells in presence of apamin/total number of migrating cells in control experiments. The apamin concentration selected has no effect on cell proliferation and viability. […] Mammary cancer MDA-MB-435s cells were used as control cell. […]
as §1, with “1667:190-9.).” for “1667:190-9.). Cells were seeded on 24-well plates and grown for 48 h.”

SK3 protein [3] = assay: Western blot of SK3 protein after siRNA transfection, 518A2; format: cell-based, human; details: 518A2, 48 hours after transfection vs scrambled-siRNA, FIG. 8A
Protocol: FIG. 8A—Western blot patterns showing the silencing effect on the expression of SK3 protein of two siRNAs designed against SK3 mRNA. Cells were transfected with siRNA-lipofectamine complexes for 48 h. A scrambled-siRNA was used as negative control. siRNA oligonucleotide sequences are listed in the Materials and Methods section.
For Western blot experiments, proteins were electrotransferred onto polyvinylidene fluoride membranes which were incubated with antibodies directed against SK2 and SK3 proteins (1:1000) followed by incubation with a horseradish peroxidase-conjugated anti-rabbit IgG (1:5000; Tebu-Bio, France). Anti-SK2 directed against amino acids 542-559 and anti-SK3 directed against amino acids 2-21 (Sigma-Aldrich, France) were used for Western blot and immunocytochemical experiments. Anti-Actin directed against amino acids 20-33 (Sigma-Aldrich, France) was used for western blot loading control experiments.
Two SK3 specific siRNA were designed: first set, hSK3-ex1-Sense 5′-GAAAGCGACUGAGUGACUAdTdT-3′ (sequence SEQ ID No. 5) and hSK3-ex1-Antisense 5′-UAGUCACUCAGUCGCUUCdTdT-3′, (sequence SEQ ID N 06) located in exon 1; second set, hSK3-ex3-Sense 5′-CCAUUCCUGGCGAGUACAAdTdT-3′ (sequence SEQ ID No. 7) and hSK3-ex3-Antisense 5′-UUGUACUCGCCAGGAAUGGdTdT-3′, (sequence SEQ ID No. 8) located in exon 3. […]

MDA-MB-435s cells [4] = details: for decrease of outward currents: FIG. 2C
Protocol: Currents were generated by stepwise 8 mV depolarizing pulses (400 ms duration; 5 sec intervals) from a constant holding potential of −70 mV up to +58 mV. Signals were filtered at 1 kHz and digitized at 10 kHz.
B, C—Current-density was obtained by dividing the averaged steady-state current elicited at +26 mV (recorded during the latest 50 ms of the pulse) by the respective cell capacitance. Membrane capacitance was calculated by integrating the capacitive current measured during a 10 mV voltage step.
(§2) Whole-cell potassium currents and intracellular Ca^2+ ([Ca^2+]i) measurements were recorded as described (Roger S, Potier M, Vandier C, Le Guennec J Y, Besson P. Description and role in proliferation of iberiotoxin-sensitive currents in different human mammary epithelial normal and cancerous cells. (Biochim Biophys Acta 2004; 1667:190-9.). Signals were captured using 1322-A Digidata converter (Axon Instruments, USA) and pClamp 8.1 software (Axon Instruments, USA). The analysis were performed using Clampfit 8.1 and Origin 7.0 softwares (Microcal Software, Northampton, Mass., USA).
(§3) The physiological saline solution (PSS) in mM: NaCl 140, MgCl2 1, KCl 4, CaCl2 2, D-glucose 11.1, and HEPES 10, adjusted to pH 7.4 with NaOH. The pipette solution for the whole-cell recording, pCa=7 was (in mM): K-glutamate 125, KCl 20, CaCl2 0.37, MgCl2 1, Mg-ATP 1, EGTA 1, HEPES 10, adjusted to pH 7.2 with KOH. […] All drugs and chemicals were purchased from Sigma-Aldrich (St Quentin, France), except Lei-Dab7 which was a generous gift from Dr. J. M. Sabatier, UMR CNRS 6560, Marseille, France.

MDA-MB-435s cells [5] = format: cell-based, human; details: current-clamp, FIG. 2D
Protocol: D—Variations of membrane potential recorded in control conditions (PSS without drugs, n=11) and in presence of TEA (n=7), 4-AP (n=8) and TEA plus 4-AP (n=3). Membrane potential was measured in current-clamp mode (I=0) just after the disruption of the patch membrane.
as §2, §3

SK3 = SK3 (Homo sapiens, UniProt Q9UGI6); details: apamin: low concentration (1 nM); cited from earlier work
SK2 = SK2 (Homo sapiens, UniProt Q9H2S1); details: apamin: low concentration (1 nM); cited from earlier work
Chain of SK2 (Q9H2S1 whole entry): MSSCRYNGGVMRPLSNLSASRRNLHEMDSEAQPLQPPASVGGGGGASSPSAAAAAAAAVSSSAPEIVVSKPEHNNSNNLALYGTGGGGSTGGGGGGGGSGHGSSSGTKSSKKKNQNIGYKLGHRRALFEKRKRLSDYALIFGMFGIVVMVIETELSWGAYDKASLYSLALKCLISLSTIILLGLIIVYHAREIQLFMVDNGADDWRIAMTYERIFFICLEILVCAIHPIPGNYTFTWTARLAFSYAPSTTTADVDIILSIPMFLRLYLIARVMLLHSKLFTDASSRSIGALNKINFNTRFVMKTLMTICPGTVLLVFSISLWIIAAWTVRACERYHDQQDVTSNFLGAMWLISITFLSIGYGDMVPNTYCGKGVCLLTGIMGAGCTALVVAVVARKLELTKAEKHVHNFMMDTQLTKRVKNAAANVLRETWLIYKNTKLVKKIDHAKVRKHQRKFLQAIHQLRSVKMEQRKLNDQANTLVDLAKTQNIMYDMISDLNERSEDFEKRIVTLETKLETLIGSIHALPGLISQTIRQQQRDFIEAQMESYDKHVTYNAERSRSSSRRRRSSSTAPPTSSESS

Chain of SK3 protein (Q9UGI6 other isoform, or with tags, fused parts or gaps DUP76-80): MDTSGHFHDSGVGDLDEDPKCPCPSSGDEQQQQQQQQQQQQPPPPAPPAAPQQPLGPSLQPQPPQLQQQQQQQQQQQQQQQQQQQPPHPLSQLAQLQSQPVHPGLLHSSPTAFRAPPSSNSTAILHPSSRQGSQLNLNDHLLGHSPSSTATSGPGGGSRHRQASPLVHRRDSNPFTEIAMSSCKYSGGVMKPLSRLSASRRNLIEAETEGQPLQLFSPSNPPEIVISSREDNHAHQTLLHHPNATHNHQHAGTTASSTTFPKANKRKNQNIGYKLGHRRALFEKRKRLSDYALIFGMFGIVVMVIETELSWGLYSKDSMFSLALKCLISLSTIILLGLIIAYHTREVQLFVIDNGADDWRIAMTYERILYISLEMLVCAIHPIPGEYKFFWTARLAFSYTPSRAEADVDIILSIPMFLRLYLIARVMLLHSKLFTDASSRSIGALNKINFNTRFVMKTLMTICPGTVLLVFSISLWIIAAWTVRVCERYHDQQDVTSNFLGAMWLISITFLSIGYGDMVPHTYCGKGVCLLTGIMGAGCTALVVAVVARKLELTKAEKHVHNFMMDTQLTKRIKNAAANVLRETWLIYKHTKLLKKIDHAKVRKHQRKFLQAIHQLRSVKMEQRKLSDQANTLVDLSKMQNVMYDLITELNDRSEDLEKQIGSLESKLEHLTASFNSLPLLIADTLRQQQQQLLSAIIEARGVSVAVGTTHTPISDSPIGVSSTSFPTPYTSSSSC
Chain of SK3 (Q9UGI6 whole entry): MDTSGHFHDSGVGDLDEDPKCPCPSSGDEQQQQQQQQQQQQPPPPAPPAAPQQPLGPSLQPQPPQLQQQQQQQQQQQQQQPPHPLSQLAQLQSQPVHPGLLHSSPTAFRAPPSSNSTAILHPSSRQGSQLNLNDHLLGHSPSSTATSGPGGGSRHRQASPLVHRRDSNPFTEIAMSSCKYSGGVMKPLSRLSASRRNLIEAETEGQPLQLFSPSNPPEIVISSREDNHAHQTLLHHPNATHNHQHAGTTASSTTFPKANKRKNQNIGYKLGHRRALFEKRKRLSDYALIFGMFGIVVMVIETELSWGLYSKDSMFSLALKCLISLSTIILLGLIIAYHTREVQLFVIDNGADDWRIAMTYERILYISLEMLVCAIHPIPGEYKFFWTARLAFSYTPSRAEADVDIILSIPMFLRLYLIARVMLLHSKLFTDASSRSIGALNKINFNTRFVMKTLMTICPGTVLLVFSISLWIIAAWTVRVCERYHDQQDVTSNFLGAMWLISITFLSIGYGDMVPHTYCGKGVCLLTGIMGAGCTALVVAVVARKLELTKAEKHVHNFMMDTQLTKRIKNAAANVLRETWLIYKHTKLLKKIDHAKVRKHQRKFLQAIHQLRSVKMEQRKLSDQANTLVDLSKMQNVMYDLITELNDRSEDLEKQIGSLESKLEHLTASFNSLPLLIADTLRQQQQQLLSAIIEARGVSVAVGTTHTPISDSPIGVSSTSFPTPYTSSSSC

| Compound | SK3 expression (Western blot) (SK3 protein [1]) | number of migrating cells after siRNA transfection (MDA-MB-435s cells [2]) | decrease of outward currents (MDA-MB-435s cells [4]) [%] | effect on membrane potential (MDA-MB-435s cells [5]) | block of SK3 channel (SK3) | other results |
| --- | --- | --- | --- | --- | --- | --- |
| ΔExon3-siRNA: siRNA against SK3 exon 3, sense 5′-CCAUUCCUGGCGAGUACAAdTdT-3′ (SEQ ID No. 7), antisense SEQ ID No. 8 (sense CCAUUCCUGGCGAGUACAADTDT; antisense UUGUACUCGCCAGGAAUGGDTDT; chemistry not fully specified) | marked suppression | markedly reduced | – | – | – | relative efficiency of the siRNAs (Western blot and migration) (MDA-MB-435s cells [2]; MDA-MB-435s): more efficient than ΔExon1-siRNA |
| ΔExon1-siRNA: siRNA against SK3 exon 1, sense 5′-GAAAGCGACUGAGUGACUAdTdT-3′ (SEQ ID No. 5), antisense SEQ ID No. 6 (sense GAAAGCGACUGAGUGACUADTDT; antisense UAGUCACUCAGUCGCUUCDTDT; chemistry not fully specified) | marked suppression | markedly reduced | – | – | – | number of migrating cells after siRNA transfection (518A2 cells): markedly reduced; SK3 expression (Western blot) (SK3 protein [3]): decrease |
| Nc1ccncc1 [4-AP, 4-aminopyridine] | – | – | 50 | depolarized | blocks | – |
| CC[N+](CC)(CC)CC [TEA, tetraethylammonium] | – | – | 50 | depolarized | blocks | block of SK2 channel (SK2): blocks |
| CC(C)C[C@@H]1NC(=O)[C@H](C)NC(=O)[C@H]([C@@H](C)O)NC(=O)[C@H](CCC(=O)O)NC(=O)[C@@H]2CCCN2C(=O)[C@H](C)NC(=O)[C@H](CCCCN)NC(=O)[C@@H]2CSSC[C@@H](C(=O)N[C@@H](CCC(N)=O)C(=O)N[C@@H](CCC(N)=O)C(=O)N[C@@H](Cc3cnc[nH]3)C(N)=O)NC(=O)[C@H](CCCNC(=N)N)NC(=O)[C@H](CCCNC(=N)N)NC(=O)[C@H](C)NC(=O)[C@H](CSSC[C@H](N)C(=O)N[C@@H](CC(N)=O)C(=O)N2)NC1=O [apamin] | – | – | – | – | – | pIC50 (MDA-MB-435s cells [4]; read-out: estimated IC50 of block of outward currents, whole-cell, dose-dependent, FIG. 2B): > 10.00 |
